In patent US20260159525A1, “TRICYCLIC HETEROCYCLES” (Merck Patent GmbH, priority 2021, published 2026):

Legend:
Assay type in all cases: cell-based
[1] = tested on: NCI-H226 cells; experiment: Viability assay in NCI-H226 (Yap-dependent) cells, CyQUANT; details: Homo sapiens, NCI-H226 YAP dependent cell line, 96 hour incubation
Protocol: (§1) Viability Assay in NCI-H226 (Yap-Dependent) and SW620 Yap KO (Yap Independent) Cells
(§2) The ability of YAP-TEAD inhibitors to inhibit tumor cell growth was evaluated using two different cell lines: NCI-H226, which is a YAP dependent cell line, and SW620 cells, where YAP and TAZ were knocked out using CRISPR to generate a YAP independent cell line.
(§3) For the assay, cells were treated in duplicates with the test compounds in a 10-point dose, 1:3 dilution steps, with the top concentration starting at 30 μM (final concentration in assay). After a 96 hour incubation at 37° C., 95% rH, and 5% CO2, a cell-permeant DNA-binding dye that stains only healthy cells (CyQUANT®, Promega) was added to the cells, allowing the quantification of cell viability.
(§4) Cell Media: The NCI-H226 cells were cultured in the following media: RPMI 1640, +10% FBS, +1× GlutaMAX, +10 mM HEPES, +0.5% Pen/Strep. The SW620-KO cells were cultured in the following media: DMEM/F-12, +10% FBS, +1× GlutaMAX, +10 mM HEPES, +0.5% Pen/Strep.
(§5) Reagents: The reagents used are listed below:
(§6) Cell culture: The cells were examined using an inverted microscope to check for health, cell density, etc. To dissociate adherent cells, the monolayer of cells was washed once with pre-warmed PBS. After removing the PBS, 3 ml pre-warmed Accutase was added to a F75 flask, dispersed evenly and the flask was allowed to sit in incubator for ˜4-5 minutes.
(§7) When a single cell suspension was obtained, 7 ml of prewarmed growth media was added and resuspended with the cells. The cell suspension was transferred to a sterile 15 ml conical centrifuge tube, and spun for 5 min at 300×g, RT. The supernatant was discarded and the pellet was resuspended in 10 ml of pre-warmed growth media.
(§8) The total cell count was determined, and 20 μl of the desired cell number was added to each well of a 384 well plate using a Multidrop Combi. The plates were then incubated for 24 hours at 37° C., 95% rH, and 5% CO2.
(§9) Compound treatment: 24 hours after seeding, the cells were treated with compounds.
(§10) A 1:333 dilution of compounds, diluted in DMSO, was made to get a final concentration of 0.3% DMSO per well. To transfer the compounds to the assay plate, 120 nl was shot from Labcyte low dead volume plates to the cell plates containing 20 μl media/well with the ECHO 555 liquid handling system. After treatment, the cells were fed with 20 μl fresh pre-warmed assay media using a Multidrop combi.
(§11) The assay plates were then incubated for 96 h at 37° C., 95% rH, and 5% CO2.
(§12) 96 h after treatment 30 μl of CyQuant® reagent was added to the assay plates using a Multidrop combi in the dark. The plates were then incubated for 1 hour at 37° C., 95% rH and 5% CO2. Thereafter, the assay plates were removed from the incubator and allowed to equilibrate to RT for 30 min in the dark without lid. Finally, they were measured using an EnVision microplate reader with a FITC bottom read program.

[2] = tested on: YAP-TEAD interaction; experiment: SK-HEP-1 reporter assay (8x TEAD responsive elements driving NanoLuc luciferase); details: Homo sapiens, SK-HEP1, SK-HEP-1 cells, 24 hour incubation
Protocol: To identify inhibitors of YAP-TEAD interaction, 8× TEAD responsive elements driving the NanoLuc® luciferase gene were stably integrated into SK-HEP-1 cells (ECACC #: 91091816).
For the assay, cells were treated in duplicates with the test compounds in a 10-point dose, with the top concentration starting at 30 μM (final concentration in assay). After a 24 hour incubation at 37° C., 95% rH, and 5% CO2, a luciferase substrate/lysis reagent mix (NanoGlo™, Promega) was added to the cells, allowing the quantification of cellular luciferase activity.
Cell Media: The cells were cultured in the following media: MEM, +10% FBS, +1× GlutaMAX, +1 mM Sodium-Pyruvate, +100 μM Non-essential amino acids, +0.1 mg/ml Hygromycin. The media used for the assay was: MEM (w/o Phenol Red), +10% FBS, +1× GlutaMAX, +1 mM Sodium-Pyruvate, +100 μM Non-essential amino acids, +0.5% Pen/Strep
as §5
as §6, with “health and” for “health,”, “density.” for “density, etc.”, “Accutase®” for “Accutase”
as §7, §8, §9, §10
The assay plates were then incubated for another 24 h at 37° C., 95% rH, and 5% CO2.
Luciferase readout: 24 h after treatment, the plates were taken out of the incubator and were allowed to equilibrate to RT. 30 μl of NanoGlo® reagent was added to the plates in the dark. Plates were shaken for 20 min on a Teleshake (˜1500 rpm) in the dark. The luminescence was then measured using an EnVision microplate reader. The IC50 values were generated using Genedata Screener®.

[3] = tested on: SW620 Yap KO cells; experiment: Viability assay in SW620 Yap KO (Yap independent) cells, CyQUANT; details: Homo sapiens, SW-620, SW620 YAP and TAZ knocked out (YAP independent), 96 hour incubation, n.d. (x) = not detectable below threshold x
Protocol: as §1, §2, §3, §4, §5, §6, §7, §8, §9, §10, §11, §12

[4] = number, or n.d. (x) = not detectable below threshold x

Compound	IC50 ([1]; group symbols)	IC50 ([2]; group symbols)	IC50 [3]	IC50 ([1]; printed number)	IC50 [2, 4]
Cn1cc2c3cc(C(=O)N[C@@H](CO)c4ccccn4)sc3n(-c3ccc(OC(F)(F)F)cn3)c2n1 [Compound 125, N-[(1R)-2-hydroxy-1-(pyridin-2-yl)ethyl]-4-methyl-7-[5-(trifluoromethoxy)pyridin-2-yl]-9-thia-4,5,7-triazatricyclo[6.3.0.0^2,6]undeca-1(8),2,5,10-tetraene-10-carboxamide]	1 to 100 nM	100 to 10000 nM	> 30000 nM		
Cn1cc2c3cc(C(=O)O)sc3n(-c3ccc(C(F)F)cc3)c2n1 [Compound 99, 7-[4-(difluoromethyl)phenyl]-4-methyl-9-thia-4,5,7-triazatricyclo[6.3.0.0^2,6]undeca-1(8),2,5,10-tetraene-10-carboxylic acid]	100 to 1000 nM	100 to 10000 nM	> 30000 nM		
CNC(=O)c1cc2c(s1)c1cn(C)nc1n2-c1ccc(C(F)(F)F)cc1 [Compound 1, N,10-dimethyl-7-[4-(trifluoromethyl)phenyl]-3-thia-7,9,10-triazatricyclo[6.3.0.0^2,6]undeca-1(11),2(6),4,8-tetraene-4-carboxamide]	> 10000 nM	100 to 10000 nM			
Cn1cc2c3cc(C(=O)N[C@H](CCO)c4ccccn4)sc3n(-c3ccc(C(F)(F)F)cc3)c2n1 (single isomer, unassigned) [Compound 90]				1500 nM	
Cn1cc2c3cc(C(=O)N=[S@@](C)(=O)CCCO)sc3n(-c3ccc(C(F)(F)F)cc3)c2n1 (single isomer, unassigned) [Compound 61]	100 to 1000 nM				> 9500 nM
CNC(=O)c1cc2c(s1)c1nn(C)nc1n2-c1ccc(C(F)(F)F)cc1 [Compound 5, N,4-dimethyl-7-[4-(trifluoromethyl)phenyl]-11-thia-3,4,5,7-tetraazatricyclo[6.3.0.0^2,6]undeca-1(8),2,5,9-tetraene-10-carboxamide]	1000 to 10000 nM	> 10000 nM			
Cn1cc2c3cc(C(=O)N=S(C)(C)=O)sc3n(-c3ccc(C(F)(F)F)cc3)c2n1 [Compound 34, N-[dimethyl(oxo)-λ^6-sulfanylidene]-4-methyl-7-[4-(trifluoromethyl)phenyl]-9-thia-4,5,7-triazatricyclo[6.3.0.0^2,6]undeca-1(8),2,5,10-tetraene-10-carboxamide]	100 to 1000 nM	100 to 10000 nM			
Cn1cc2c3cc(C(=O)O)sc3n([C@H]3CC[C@@H](C(F)(F)F)CC3)c2n1 [Compound 51, 4-methyl-7-[(1s,4s)-4-(trifluoromethyl)cyclohexyl]-9-thia-4,5,7-triazatricyclo[6.3.0.0^2,6]undeca-1(8),2,5,10-tetraene-10-carboxylic acid]		100 to 10000 nM	> 30000 nM		
Cn1cc2c3cc(C(=O)NCCOCCOCCNC(=O)OC(C)(C)C)sc3n(-c3ccc(C(F)(F)F)cc3)c2n1 [Compound 88, tert-butyl N-(2-{2-[2-({4-methyl-7-[4-(trifluoromethyl)phenyl]-9-thia-4,5,7-triazatricyclo[6.3.0.0^2,6]undeca-1(8),2,5,10-tetraen-10-yl}formamido)ethoxy]ethoxy}ethyl)carbamate]				88 nM	> 30000 nM
Cn1nc2c3sc(C(=O)NC(CO)c4ccccn4)cc3n(-c3ccc(C(F)(F)F)cc3)c2n1 (stereo not shown) [Compound 4, N-[2-hydroxy-1-(pyridin-2-yl)ethyl]-4-methyl-7-[4-(trifluoromethyl)phenyl]-11-thia-3,4,5,7-tetraazatricyclo[6.3.0.0^2,6]undeca-1(8),2,5,9-tetraene-10-carboxamide]	1000 to 10000 nM	> 10000 nM			
COCC[C@@H](CO)NC(=O)c1cc2c3cn(C)nc3n(-c3ccc(C(F)(F)F)cc3)c2s1 (single isomer, unassigned) [Compound 59]	100 to 1000 nM				> 300 nM
Cn1nc2c3sc(C(=O)N4CCC(O)C4)cc3n(-c3ccc(C(F)(F)F)cc3)c2n1 (stereo not shown) [Compound 9, 1-{4-methyl-7-[4-(trifluoromethyl)phenyl]-11-thia-3,4,5,7-tetraazatricyclo[6.3.0.0^2,6]undeca-1(8),2,5,9-tetraene-10-carbonyl}pyrrolidin-3-ol]		100 to 10000 nM			

Continued, values first:

IC50 ([1]; group symbols)	IC50 ([2]; group symbols)	IC50 [3]	IC50 ([1]; printed number)	IC50 [2, 4]	Compound
1 to 100 nM	1 to 10 nM	> 3000 nM			CCNC(=O)c1cc2c3cn(C)nc3n(-c3ccc(C(F)(F)F)cc3)c2s1 [Compound 46, N-ethyl-4-methyl-7-[4-(trifluoromethyl)phenyl]-9-thia-4,5,7-triazatricyclo[6.3.0.0^2,6]undeca-1(8),2,5,10-tetraene-10-carboxamide]
1 to 100 nM	10 to 100 nM	> 3000 nM			CC[C@H](CO)NC(=O)c1cc2c3cn(C)nc3n(-c3ccc(C(F)(F)F)cc3)c2s1 [Compound 93, N-[(2R)-1-hydroxybutan-2-yl]-4-methyl-7-[4-(trifluoromethyl)phenyl]-9-thia-4,5,7-triazatricyclo[6.3.0.0^2,6]undeca-1(8),2,5,10-tetraene-10-carboxamide]
100 to 1000 nM	10 to 100 nM	> 30000 nM			Cc1nc2c3sc(C(=O)O)cc3n(-c3ccc(OC(F)(F)F)cc3)c2s1 [Compound 25, 4-methyl-7-[4-(trifluoromethoxy)phenyl]-5,11-dithia-3,7-diazatricyclo[6.3.0.0^2,6]undeca-1(8),2(6),3,9-tetraene-10-carboxylic acid]
100 to 1000 nM	10 to 100 nM				Cn1cc2c3sc(C(=O)O)cc3n(-c3ccc(C(F)(F)F)cc3)c2n1 [Compound 2, 10-methyl-7-[4-(trifluoromethyl)phenyl]-3-thia-7,9,10-triazatricyclo[6.3.0.0^2,6]undeca-1(11),2(6),4,8-tetraene-4-carboxylic acid]
100 to 1000 nM	10 to 100 nM				Cn1nc2c3sc(C(=O)O)cc3n(-c3ccc(C(F)(F)F)cc3)c2n1 [Compound 3, 4-methyl-7-[4-(trifluoromethyl)phenyl]-11-thia-3,4,5,7-tetraazatricyclo[6.3.0.0^2,6]undeca-1(8),2,5,9-tetraene-10-carboxylic acid]
1 to 100 nM	10 to 100 nM				CNC(=O)c1cc2c3cn(C)nc3n(-c3ccc(C(F)(F)F)cc3)c2s1 [Compound 32, N,4-dimethyl-7-[4-(trifluoromethyl)phenyl]-9-thia-4,5,7-triazatricyclo[6.3.0.0^2,6]undeca-1(8),2,5,10-tetraene-10-carboxamide]
	10 to 100 nM				CNC(=O)c1cc2c3cn(C)nc3n(-c3ccc(SC(F)(F)F)cc3)c2s1 [Compound 85, N,4-dimethyl-7-{4-[(trifluoromethyl)sulfanyl]phenyl}-9-thia-4,5,7-triazatricyclo[6.3.0.0^2,6]undeca-1(8),2,5,10-tetraene-10-carboxamide]
